Test: Acute toxicity (acute lethal concentration in air)
Type: in vivo
Conditions: 10,000 ppm is its saturated concentration in air at room temperature
Excerpt: In addition to providing useful performance as nucleating agents, the segregated ethers useful herein can offer additional important benefits in safety of use and in environmental compatibility (e.g., zero ozone depletion potential and low atmospheric lifetime). For example, 3M NOVEC Brand HFE-7500 has low acute toxicity (its acute lethal concentration is greater than 10,000 ppm which is its saturated concentration in air at room temperature). […] Further, polymeric foams produced in accordance with the invention have excellent thermal insulation properties.

**Q.** With `CCOC(F)(C(F)(F)C(F)(F)C(F)(F)F)C(F)(C(F)(F)F)C(F)(F)F` (stereo not shown) [3M NOVEC Brand HFE-7500, C3F7CF(OC2H5)CF(CF3)2] as the compound, how does the acute lethal concentration read?
**A.** The acute lethal concentration was “greater than 10,000 ppm”.

From US7763578B2, “Preparation of polymeric foams using hydrofluoroether nucleating agents” (3M Innovative Properties Company, priority 2004, dated 2010)
